From the NIST ThermoML archive (doi:10.1021/je0601457)

Assay: xn = mol fraction of the nth substance listed
Settings: Liquid, linear displacement

COc1cnccn1 [methoxypyrazine] + O=C=O
Settings	mass density [kg/m3]
294.35 K, x1 = 0.107	802
294.55 K, x1 = 0.129	922
295.15 K, x1 = 0.069	809
295.15 K, x1 = 0.919	1033
295.25 K, x1 = 0.015	726
295.25 K, x1 = 0.039	780
295.75 K, x1 = 0.207	911
295.75 K, x1 = 0.379	929
296.35 K, x1 = 0.025	797
296.85 K, x1 = 0.232	981
297.15 K, x1 = 0.919	1109
298.15 K, x1 = 0.379	934
299.55 K, x1 = 0.015	749
299.95 K, x1 = 0.919	1063
303.35 K, x1 = 0.025	778
303.75 K, x1 = 0.015	718
304.35 K, x1 = 0.007	679
305.95 K, x1 = 0.919	1097
306.95 K, x1 = 0.207	945
307.15 K, x1 = 0.069	843
307.55 K, x1 = 0.129	920
307.95 K, x1 = 0.039	778
310.65 K, x1 = 0.107	860
311.95 K, x1 = 0.637	1122
312.55 K, x1 = 0.379	1012
313.55 K, x1 = 0.025	696
314.15 K, x1 = 0.232	987
317.85 K, x1 = 0.919	1085
326.85 K, x1 = 0.129	864
328.45 K, x1 = 0.207	906
330.65 K, x1 = 0.379	982
332.45 K, x1 = 0.232	948
332.65 K, x1 = 0.637	1097
332.65 K, x1 = 0.919	1063
332.85 K, x1 = 0.107	794
348.55 K, x1 = 0.207	866
348.65 K, x1 = 0.379	958
348.95 K, x1 = 0.919	1050
354.15 K, x1 = 0.232	902
354.35 K, x1 = 0.637	1070
366.45 K, x1 = 0.379	933
367.35 K, x1 = 0.637	1055
367.65 K, x1 = 0.207	824
368.95 K, x1 = 0.232	864
